Test results: patent US9637519B2, “Peptide for inducing mast cell-specific apoptosis and use thereof” (CAREGEN CO., LTD., priority 2013, dated 2017)
Read-outs that look alike come from different tables or passages of the source. Ends that are not written are not given here.

T1: FcεRI receptor (Rattus norvegicus, UniProt P12371+P13386+P20411)
T1 construct: FcεRI receptor, which is present on surfaces of mast cells; endogenous in cells; host or cells: RBL-2H3 rat mast cell line
T1 sequence (P12371 24-245): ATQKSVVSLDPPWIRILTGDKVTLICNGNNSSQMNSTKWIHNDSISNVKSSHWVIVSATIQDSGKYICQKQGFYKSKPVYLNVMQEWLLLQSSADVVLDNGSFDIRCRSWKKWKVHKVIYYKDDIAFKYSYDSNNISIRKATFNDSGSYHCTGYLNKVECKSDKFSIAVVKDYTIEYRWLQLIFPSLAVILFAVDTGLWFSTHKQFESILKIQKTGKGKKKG
T1 sequence (P13386 1-243): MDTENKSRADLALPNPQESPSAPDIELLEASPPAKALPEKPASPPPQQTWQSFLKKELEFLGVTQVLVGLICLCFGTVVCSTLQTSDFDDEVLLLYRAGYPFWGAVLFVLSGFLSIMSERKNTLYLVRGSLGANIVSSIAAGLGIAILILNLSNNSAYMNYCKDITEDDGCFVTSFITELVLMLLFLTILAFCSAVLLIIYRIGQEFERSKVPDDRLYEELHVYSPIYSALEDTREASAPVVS
T1 sequence (P20411 19-86): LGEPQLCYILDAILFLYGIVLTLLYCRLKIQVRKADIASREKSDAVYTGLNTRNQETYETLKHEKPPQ


Key:
[1] = tested on: RBL-2H3 cells; experiment: Histamine secretion from IgE/HSA-stimulated mast cells (histamine ELISA); assay type: cell-based, rat; conditions: IgE 1 μg/ml sensitized, HSA 1 μg/ml stimulated
Method: In the culture of RBL-2H3 cells sensitized by IgE treatment (1 μg/ml) for 16 h, the existing culture medium was removed and exchanged with a tyrode buffer. […] In addition, in order to measure the activity of beta-hexosaminidase, the degree of color development after a reaction with a substrate, p-N-acetyl-glucosamine (NAG; SIGMA, USA) was determined by measuring the absorbance at 405 nm using a spectrophotometer (see FIG. 3b).

[2] = biological target: T1, FcεRI receptor; experiment: Immunoprecipitation with IgE antibody and western blotting of FcεRI gamma sub-chain (receptor complex formation); assay type: cell-based; conditions: IgE-sensitized cells; peptide 10 μg/ml; HSA stimulation 10 min
Method: After the first separation using immunoprecipitation, western blotting was conducted using FcεRI gamma sub-chain antibody to confirm the protein amount of the gamma sub-chains binding to IgE (see FIG. 4c).

[3] = Thermal stability at 37° C. in phosphate buffered saline, HPLC quantification; assay type: physicochemical; conditions: 0.1 mg/ml in PBS, days 0-70 (FIG. 5)
Method: 1 ml of the prepared solution was placed in each glass vial, and allowed to stand at 37° C. The solution standing at 37° C. was sampled on days 0, 5, 10, 20, 30, 50, and 70. Centrifugation for each day was conducted to remove modified peptides or proteins, and the supernatant was taken. HPLC was used for quantification (see FIG. 5).

[4] = tested on: Bcl2; conditions: 1 and 10 μg/ml, 27 h
[5] = tested on: ERK1/2; conditions: IgE-sensitized cells; peptide 10 μg/ml 20 min; HSA 1 μg/ml 5 or 30 min
Method: (§1) The cells were placed in a 60 mm-sized plate for culture (SPL, Korea) at 1.5×10^6 cells per well, and then cultured for 24 h under conditions of 37° C. and 5% CO2. After that, the cells were treated with IgE (1 μg/ml) for 24 h for cell sensitization, and then a blank sample for determining a reference and the synthetic peptide were dissolved in 10% distilled water in a sterile state, followed by treatment with a concentration of 10 μg/ml for 20 min, and then the cells were stimulated by treatment with 1 μg/ml allergen HSA for 5 min or 30 min.

[6] = tested on: p38; conditions: IgE-sensitized cells; peptide 10 μg/ml 20 min; HSA 1 μg/ml 5 or 30 min
Method: as §1

[7] = tested on: Lyn; conditions: IgE-sensitized cells; peptide treatment 20 min; HSA 1 μg/ml
[8] = tested on: RBL-2H3 rat mast cell lines; conditions: 10 μg/ml treatment group, 27 h
Method: First, RBL-2H3 rat mast cell lines (Korean Cell Line Bank, Korea) were cultured in Dulbecco's modified Eagle's medium (DMEM, Gibco, U.S.A.) supplemented with 10% fetal bovine serum (FBS, Sigma) using a flask for tissue culture (SPL, Korea). The cultured cell lines were detached from the bottom of the culture container using a 1% trypsin solution, and then only cell deposits were collected by centrifugation. The cell deposits were again suspended in DMEM culture liquid, placed in each well of a 6-well plate for tissue culture (SPL, Korea) at 1×10^5 cells per well, and then cultured for 24 h under conditions of 37° C. and 5% CO2. After 24 h, the medium was exchanged with the same culture liquid. […] After the completion of the culture, the culture supernatant fluid was removed, the cultured cell lines were detached from the bottom of the culture container using a 1% trypsin solution, and then only cell precipitates were collected by centrifugation. The cells were stained using an Annexin V-PI staining kit (BD pharmigen), and then FL1 and FL2 intensities were measured using flow cytometry, FACS. Annexin V-positive apoptotic cells were counted (see FIG. 2a).

[9] = tested on: HaCaT cells; conditions: HaCaT human keratinocytes; 1 and 10 μg/ml; 27 h; MTT
Method: (§2) Meanwhile, in order to investigate whether or not the apoptosis effect is a mast cell-specific reaction, the cytotoxicity test was conducted using HaCaT cells as keratinocytes and NIH3T3 cells as fibroblasts. The cells were placed in a 96-well plate for tissue culture at 5×10^3 cells per well, and then cultured for 24 h under conditions of 37° C. and 5% CO2. After 24 h, the medium was exchanged with the same culture liquid. A blank sample for determining a reference and the synthetic peptide were dissolved in 10% distilled water in a sterile state, followed by culturing at concentrations of 1 μg/ml and 10 μg/ml for 27 h under the same conditions as above. After the completion of the culture, the culture liquid was treated with MTT reagent (5 mg/ml; SIGMA, USA) with 1/10 volume and further cultured for 4 h, and the generated formazan was dissolved in DMSO and the absorbance was measured at 540 nm using a spectrophotometer (Molecular devices, USA) (see FIG. 2c).

[10] = tested on: NIH3T3 cells; conditions: NIH3T3 fibroblasts; 1 and 10 μg/ml; 27 h; MTT
Method: as §2

[11] = activated mast cells (IgE and HSA treatment)

Molecule | secretion amount of histamine ([1]; positive control 40 μM) | complex formation of FcεRI receptor (gamma sub-chains binding to IgE) [2] | thermal stability [3] | expression level of Bcl2 [4, 11] | expression level of Bcl2 ([4]; inactivated mast cells) | phosphorylation of ERK1/2 [5] | phosphorylation of p38 [6] | phosphorylation of Lyn [7] | Annexin V-positive cell count (apoptosis) [8, 11] | Annexin V-positive cell count (apoptosis) ([8]; inactivated mast cells) | secretion amount of histamine ([1]; peptide 1 and 10 μg/ml) | cytotoxicity [9] | cytotoxicity [10]
O=c1c(O)c(-c2ccc(O)c(O)c2)oc2cc(O)cc(O)c12 [quercetin, reference compound] | reduces the secretion amount of histamine |  |  |  |  |  |  |  |  |  |  |  | 
WVPYQARVPYPR [peptide of the present invention] |  | significantly inhibit the complex formation | very excellent thermal stability | reduce the expression level of Bcl2 | reduce the expression level of Bcl2 | efficacy of inhibiting the phosphorylation | efficacy of inhibiting the phosphorylation | significantly inhibited in a concentration-dependent manner | increased the Annexin V-positive cell count | increased the Annexin V-positive cell count | activity to reduce the secretion amount of histamine in a concentration-dependent manner | did not exhibit cytotoxicity | did not exhibit cytotoxicity
natural semaphorin 3A protein: standard form growth factor (Semaphorin 3A) purchased from NIBSC (UK); human semaphorin 3A, SEQ ID NO: 2 (protein, listed as Homo sapiens) MGWLTRIVCLFWGVLLTARANYQNGKNNVPRLKLSYKEMLESNNVITFNGLANSSSYHTFLLDEERSRLYVGAKDHIFSFDLVNIKDFQKIVWPVSYTRRDECKWAGKDILKECANFIKVLKAYNQTHLYACGTGAFHPICTYIEIGHHPEDNIFKLENSHFENGRGKSPYDPKLLTASLLIDGELYSGTAADFMGRDFAIFRTLGHHHPIRTEQHDSRWLNDPKFISAHLISESDNPEDDKVYFFFRENAIDGEHSGKATHARIGQICKNDFGGHRSLVNKWTTFLKARLICSVPGPNGIDTHFDELQDVFLMNFKDPKNPVVYGVFTTSSNIFKGSAVCMYSMSDVRRVFLGPYAHRDGPNYQWVPYQGRVPYPRPGTCPSKTFGGFDSTKDLPDDVITFARSHPAMYNPVFPMNNRPIVIKTDVNYQFTQIVVDRVDAEDGQYDVMFIGTDVGTVLKVVSIPKETWYDLEEVLLEEMTVFREPTAISAMELSTKQQQLYIGSTAGVAQLPLHRCDIYGKACAECCLARDPYCAWDGSACSRYFPTAKRRTRRQDIRNGDPLTHCSDLHHDNHHGHSPEERIIYGVENSSTFLECSPKSQRALVYWQFQRRNEERKEEIRVDDHIIRTDQGLLLRSLQQKDSGNYLCHAVEHGFIQTLLKVTLEVIDTEHLEELLHKDDDGDGSKTKEMSNSMTPSQKVWYRDFMQLINHPNLNTMDEFCEQVWKRDRKQRRQRPGHTPGNSNKWKHLQENKKGRNRRTHEFERAPRSV |  |  | low stability at the time of storage for a long period of time |  |  |  |  |  |  |  |  |  | 
